# “And” between values parts separate entries of the source, which are not always exact repeats. Equal entries are not always repeated. “Also recorded” adds a separate entry of the source. Starred links: 1 amine or outer side, 2 acyl side, 3 side chain; linkers in the order of their positions; H or OH if unused. Non-standard residues stand in square brackets, D forms with d. No end group written: not given here. gPNA = guanine base linked to N-(2-aminoethyl)-glycine backbone, Nc1nc2c(ncn2CC(=O)N(CCN[*:1])CC(=O)[*:2])c(=O)[nH]1; tPNA = thymine base linked to N-(2-aminoethyl)-glycine backbone, Cc1cn(CC(=O)N(CCN[*:1])CC(=O)[*:2])c(=O)[nH]c1=O; cPNA = cytosine base linked to N-(2-aminoethyl)-glycine backbone, Nc1ccn(CC(=O)N(CCN[*:1])CC(=O)[*:2])c(=O)n1; aPNA = adenine base linked to N-(2-aminoethyl)-glycine backbone, Nc1ncnc2c1ncn2CC(=O)N(CCN[*:1])CC(=O)[*:2]; hArg = N=C(N)NCCCC[C@H](N)C(=O)O; Orn = NCCC[C@H](N)C(=O)O; Dap = NC[C@H](N)C(=O)O; ∗∗ = not defined here
# Molecular target: MJDCAG78 RNA
# Assay: Isothermal titration calorimetry binding assay, expanded MJDCAG78 RNA
# Details: ITC at 25° C.; 0.7 mM peptide titrated into 0.5 μM MJDCAG78 RNA; one binding site model; mean ± S.E.M.
# Protocol: Experiments were carried out using a MicroCal iTC200 isothermal titration calorimeter (GE Healthcare) at 25° C. Data were analyzed using the Origin® scientific plotting software version 7 (Microcal Software Inc.). All RNAs and peptides were dissolved in binding buffer (20 mM MOPS, pH 7.0; 300 mM NaCl) and 0.7 mM of peptide was titrated into 0.5 μM of RNA for each experiment. The concentration of RNA was estimated with appropriate extinction coefficients at 260 nm on a Nanodrop 2000 (Thermo Scientific). A reference power of 8 μcal/s was used with an initial 0.5 μl of injection of peptide followed by 2 μl for all subsequent titrations points with a 60 sec initial equilibrium delay and 150 sec pause between injections. The samples were stirred at a speed of 1000 rpm throughout the experiment. The thermal titration data were fitted to the ‘one binding site model’ to determine the dissociation constant (KD). Each experiment was repeated at least 3 times with consistent results obtained.
Substance,KD,Kd
Ac-Asp-Gly-(Orn)-Ser-Lys-Gly-Ile-Ala-Tyr-Ile-Glu-Phe-Lys-NH2 (Ac-DG[Orn]SKGIAYIEFK-NH2) [P3V16],No binding,–
Ac-Asp-Gly-Lys-Ser-(hArg)-Gly-Ile-Ala-Tyr-Ile-Glu-Phe-Lys-NH2 (Ac-DGKS[hArg]GIAYIEFK-NH2; SMILES CC[C@H](C)[C@H](NC(=O)CNC(=O)[C@H](CCCCNC(=N)N)NC(=O)[C@H](CO)NC(=O)[C@H](CCCCN)NC(=O)CNC(=O)[C@H](CC(=O)O)NC(C)=O)C(=O)N[C@@H](C)C(=O)N[C@@H](Cc1ccc(O)cc1)C(=O)N[C@H](C(=O)N[C@@H](CCC(=O)O)C(=O)N[C@@H](Cc1ccccc1)C(=O)N[C@@H](CCCCN)C(N)=O)[C@@H](C)CC) [P3V15],No binding,–
"DGKSKGIAYIEFKDGKSKGIAYIEFK [P3V20, linear dimer of P3V8]",did not show any binding; also recorded: No binding,–
Ac-Asp-Gly-Lys-Ser-(Dap)-Gly-Ile-Ala-Tyr-Ile-Glu-Phe-Lys-NH2 (Ac-DGKS[Dap]GIAYIEFK-NH2; SMILES CC[C@H](C)[C@H](NC(=O)CNC(=O)[C@H](CN)NC(=O)[C@H](CO)NC(=O)[C@H](CCCCN)NC(=O)CNC(=O)[C@H](CC(=O)O)NC(C)=O)C(=O)N[C@@H](C)C(=O)N[C@@H](Cc1ccc(O)cc1)C(=O)N[C@H](C(=O)N[C@@H](CCC(=O)O)C(=O)N[C@@H](Cc1ccccc1)C(=O)N[C@@H](CCCCN)C(N)=O)[C@@H](C)CC) [P3V19],No binding,–
H-Asp-Gly-Lys-Ser-Lys-Gly-Ile-Ala-Tyr-Ile-Glu-Phe-Lys-tPNA-cPNA-gPNA-NH2 (DGKSKGIAYIEFK[tPNA][cPNA][gPNA]-NH2; also: Asp N-terminal amino group replaced by hydrogen) [P3V23],–,233 ± 98.9 µM
DGRSRGIAYIEFK [P3V5],–,~0.86 µM and 0.86 µM
H-gPNA-**-Lys-Ser-Lys-Gly-Ile-Ala-Tyr-Ile-Glu-Phe-Lys-NH2 (H-[gPNA]KSKGIAYIEFK-NH2; not fully specified (residue 1); printed as H-gPNA-**-Lys-Ser-Lys-Gly-Ile-Ala-Tyr-Ile-Glu-Phe-Lys-NH2; also: N-terminal amino group replaced by hydrogen) [P3V26],–,8.85 ± 2.85 µM
H-Asp-Gly-Lys-Ser-Lys-Gly-Ile-Ala-Tyr-Ile-Glu-Phe-Lys-tPNA-NH2 (DGKSKGIAYIEFK[tPNA]-NH2; also: Asp N-terminal amino group replaced by hydrogen) [P3V22],No binding,–
DGRSRGIAYIEFK [P3V9],–,2.34 ± 0.49 µM
DGKSKGIAYIEFA [P3MT5],–,51 µM and 51.3 µM
H-cptPNA-**-Lys-Ser-Lys-Gly-Ile-Ala-Tyr-Ile-Glu-Phe-Lys-NH2 (H-XKSKGIAYIEFK-NH2; not fully specified (residue 1); printed as H-cptPNA-**-Lys-Ser-Lys-Gly-Ile-Ala-Tyr-Ile-Glu-Phe-Lys-NH2; also: N-terminal amino group replaced by hydrogen) [P3V27],–,11.2 ± 4.37 µM
DGKSKGIAWIEFK [P3V2],–,2.2 µM and 2.21 µM
H-tPNA-Asp-Gly-Lys-Ser-Lys-Gly-Ile-Ala-Tyr-Ile-Glu-Phe-Lys-NH2 ([tPNA]DGKSKGIAYIEFK-NH2; also: N-terminal amino group replaced by hydrogen) [P3V10],–,2.2 µM and 2.24 µM
DGKSKGIAAIEFK [P3MT3],–,16 µM and 16.6 µM
H-Asp-Gly-Lys-Ser-Lys-Gly-Ile-tPNA-*-Ile-Glu-Phe-Lys-NH2 (H-DGKSKGI[tPNA]IEFK-NH2; not fully specified (residue 8); also: Asp N-terminal amino group replaced by hydrogen) [P3V12],–,9.93 ± 2.19 µM
H-cPNA-gPNA-tPNA-Asp-Gly-Lys-Ser-*-Gly-Ile-Ala-Tyr-Ile-Glu-Phe-Lys-NH2 (H-[cPNA][gPNA][tPNA]DGKSGIAYIEFK-NH2; not fully specified (residue 7); printed as H-cPNA-gPNA-tPNA-Asp-Gly-Lys-Ser-*-Gly-Ile-Ala-Tyr-Ile-Glu-Phe-Lys-NH2; also: N-terminal amino group replaced by hydrogen) [P3V13],–,10.8 ± 3.08 µM
DGKSKGIAYIEYK [P3V3],–,1.74 ± 0.67 µM
DGRSRGIAYIEFR [P3V6],–,23 µM and 23.3 µM
Ac-Asp-Gly-Lys-Ser-(Orn)-Gly-Ile-Ala-Tyr-Ile-Glu-Phe-Lys-NH2 (Ac-DGKS[Orn]GIAYIEFK-NH2) [P3V17],No binding,–
Hi-cPNA-**-Lys-Ser-Lys-Gly-Ile-Ala-Tyr-Ile-Glu-Phe-Lys-NH2 (H-[cPNA][∗∗]KSKGIAYIEFK-NH2; not fully specified; printed as Hi-cPNA-**-Lys-Ser-Lys-Gly-Ile-Ala-Tyr-Ile-Glu-Phe-Lys-NH2; reading uncertain; also: N-terminal amino group replaced by hydrogen) [P3V24],–,0.96 µM
H-aPNA-**-Lys-Ser-Lys-Gly-Ile-Ala-Tyr-Ile-Glu-Phe-Lys-NH2 (H-[aPNA]KSKGIAYIEFK-NH2; not fully specified (residue 1); printed as H-aPNA-**-Lys-Ser-Lys-Gly-Ile-Ala-Tyr-Ile-Glu-Phe-Lys-NH2; also: N-terminal amino group replaced by hydrogen) [P3V25],–,8.28 ± 2.27 µM
Ac-Asp-Gly-(hArg)-Ser-Lys-Gly-Ile-Ala-Tyr-Ile-Glu-Phe-Lys-NH2 (Ac-DG[hArg]SKGIAYIEFK-NH2; SMILES CC[C@H](C)[C@H](NC(=O)CNC(=O)[C@H](CCCCN)NC(=O)[C@H](CO)NC(=O)[C@H](CCCCNC(=N)N)NC(=O)CNC(=O)[C@H](CC(=O)O)NC(C)=O)C(=O)N[C@@H](C)C(=O)N[C@@H](Cc1ccc(O)cc1)C(=O)N[C@H](C(=O)N[C@@H](CCC(=O)O)C(=O)N[C@@H](Cc1ccccc1)C(=O)N[C@@H](CCCCN)C(N)=O)[C@@H](C)CC) [P3V14],No binding,–
H-tPNA-**-Lys-Ser-Lys-Gly-Ile-Ala-Tyr-Ile-Glu-Phe-Lys-NH2 (H-[tPNA]KSKGIAYIEFK-NH2; not fully specified (residue 1); printed as H-tPNA-**-Lys-Ser-Lys-Gly-Ile-Ala-Tyr-Ile-Glu-Phe-Lys-NH2; also: N-terminal amino group replaced by hydrogen) [P3V11],–,0.12 µM
DGASKGIAYIEFK [P3MT1],–,31.3 ± 8.29 µM
DGKSKGIAYIEFK [P3V7],–,3.67 ± 0.26 µM
DGKSKGIAYIEAK [P3MT4],–,17 µM and 17.4 µM
Ac-Asp-Gly-(Dap)-Ser-Lys-Gly-Ile-Ala-Tyr-Ile-Glu-Phe-Lys-NH2 (Ac-DG[Dap]SKGIAYIEFK-NH2; SMILES CC[C@H](C)[C@H](NC(=O)CNC(=O)[C@H](CCCCN)NC(=O)[C@H](CO)NC(=O)[C@H](CN)NC(=O)CNC(=O)[C@H](CC(=O)O)NC(C)=O)C(=O)N[C@@H](C)C(=O)N[C@@H](Cc1ccc(O)cc1)C(=O)N[C@H](C(=O)N[C@@H](CCC(=O)O)C(=O)N[C@@H](Cc1ccccc1)C(=O)N[C@@H](CCCCN)C(N)=O)[C@@H](C)CC) [P3V18],No binding,–
DGKSKGIAYIEWK [P3V4],–,4.44 ± 0.47 µM
"DGKSKGIAYIEFKGDGKSKGIAYIEFK [P3V21, linear dimer of P3V8]",did not show any binding; also recorded: No binding,–
DGKSAGIAYIEFK [P3MT2],–,100 µM and 101 µM

# Same assay, conditions: relative to P3
row,Substance,improvement of binding affinity to expanded CAG RNA over P3
1,DGRSRGIAYIEFK [P3V5],~10 fold
2,Asp-(d-Ala)-Lys-Ser-Lys-Gly-Ile-Ala-Tyr-Ile-Glu-Phe-Lys (D[dA]KSKGIAYIEFK) [P3V1],4 fold
3,DGKSKGIAYIEYK [P3V3],~2 fold
4,DGKSKGIAYIEWK [P3V4],~4 fold

# Tested on: DsRedCAG100 flies
# Assay: Pseudopupil assay in DsRedCAG100 Drosophila (expanded CAG RNA neurodegeneration)
# Assay type: in vivo
# Details: 1 μM treatment; 12 day-old flies
# Source text: Here the DsRedCAG0/100Drosophila model was utilized to investigate the suppressive effects of the P3 analogs on RNA toxicity. In this model, the CAG repeat is located in the 3′ untranslated region of the DsRed reporter gene-=. The transcribed expanded CAG RNA is not translated into polyQ protein, and thus the toxicity is solely attributed to the expression of DsRedCAG100 RNA. In brief, the expression of expanded CAG RNA causes severe retinal degeneration in the animal that can be quantified by a pseudopupil assay^7. Inhibitors that can suppress neurotoxicity will result in the recovery of the number of rhabdomeres within the ommatidium. To test the derivatives, third instar larvae were fed different amounts of peptide dissolved in sucrose solution for 2 hr and then allowed to culture in standard fly food until the flies were 12 days old, at which time they were sacrificed for the pseudopupil assay.
# Flies were raised at 21.5° C. on cornmeal medium supplemented with dry yeast. Fly lines bearing UAS-DsRedCAG0 and UAS-DsRedCAG100 were kind gifts of Professor Nancy Bonini (University of Pennsylvania, USA). The gmr-GAL4 fly line was obtained from Bloomington Drosophila Stock Center. For pseudopupil assay, third instar larvae were fed with various amount of respective peptides dissolved in 2% sucrose solution for 2 hr and then continued to culture in standard fly food at 21.5° C.^38. Pseudopupil assay was performed on 12 day-old adult flies as mentioned previously^39. Images were captured by SPOT Insight CCD camera controlled by the SPOT Advanced software (Diagnostic instruments Inc.). Image processing was performed using the Adobe Photoshop CS software (Adobe). Each experiment was repeated at least 3 times (n=10 fly heads), and consistent results were obtained. For viability test of wild-type flies from egg to adult stage, eggs born within 5 hr were collected and cultured in fly food containing 10 or 50 μM of respective peptides at 21.5° C. Viability from egg-to-adult was calculated as the number of adult flies collected divided by the number of eggs examined. Each experiment was repeated for three times (at least 130 eggs were examined in each group). Two batches of independently synthesized peptides were used in the experiments.
row,Substance,pseudopupil score
1,DGRSRGIAYIEFK [P3V5],3.64±0.22

# Same assay, conditions: DsRedCAG100 flies, in words
row,Substance,suppression of neurotoxicity / retinal degeneration
1,DGRSRGIAYIEFK [P3V5],significantly suppressed neurotoxicity

# — patent US10570177B2, “P3 peptidylic inhibitors for treating CAG-repeat RNA toxicity in polyglutamine diseases” (The Chinese University of Hong Kong, priority 2017, dated 2020)
